This experiment has as its system P388 leukemia ip, CD2F1 mice, survival T/C. As to the kind of experiment: NCI In Vivo Anticancer Drug Screen. Data for tumor model P388 Leukemia (intraperitoneal) in CD2F1 (CDF1) mice. Conditions: endpoint: median survival time, higher = longer survival. Summed up:
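Mice carrying the transplanted tumor received test compound or vehicle. Survival was recorded in each group, and the value is the treated-group measurement divided by that of the vehicle-treated control group.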

[1] abbreviates: dose: 50.0 mg/kg/injection, schedule: Q01DX005 (ip), vehicle: saline with Tween-80.
Where [2] appears, read: dose: 50.0 mg/kg/injection, schedule: Q01DX005 (ip), vehicle: Klucel (hydroxypropylcellulose) (HPC).
Setting [3] is: dose: 100.0 mg/kg/injection, schedule: Q01DX005 (ip), vehicle: Klucel (hydroxypropylcellulose) (HPC).
The mark [4] stands for this setting: dose: 200.0 mg/kg/injection, schedule: Q01DX005 (ip), vehicle: Klucel (hydroxypropylcellulose) (HPC).
[5] abbreviates: dose: 60.0 mg/kg/injection, schedule: Q01DX005 (ip), vehicle: saline with Tween-80.
[6] abbreviates: dose: 120.0 mg/kg/injection, schedule: Q01DX005 (ip), vehicle: saline with Tween-80.
Setting [7] is: dose: 240.0 mg/kg/injection, schedule: Q01DX005 (ip), vehicle: saline with Tween-80.
Setting [8] is: dose: 100.0 mg/kg/injection, schedule: Q01DX005 (ip), vehicle: saline with Tween-80.
[9] abbreviates: dose: 200.0 mg/kg/injection, schedule: Q01DX005 (ip), vehicle: saline with Tween-80.
The mark [10] stands for this setting: dose: 50.0 mg/kg/injection, schedule: Q01DX009 (ip), vehicle: saline with Tween-80.
Where [11] appears, read: dose: 100.0 mg/kg/injection, schedule: Q01DX009 (ip), vehicle: saline with Tween-80.

Molecules are shown by their SMILES. “And” between values parts separate entries of the source, which are not always exact repeats. Identical values can stand only once. Inconclusive results and toxic doses are left out.

Consider `C[C@@H]1C[C@@H]2OC(=O)[C@]3(C)[C@H]2[C@@H](OC3(C)O)[C@]2(C)C(=O)C=C[C@@H]12` (some centres undefined), for which the T/C is, setting by setting: (dose: 4.25 mg/kg/injection, schedule: Q01DX009 (ip), vehicle: Klucel (hydroxypropylcellulose) (HPC)) 104 % of control; (dose: 8.5 mg/kg/injection, schedule: Q01DX009 (ip), vehicle: Klucel (hydroxypropylcellulose) (HPC)) 102 % of control and 109 % of control; (dose: 17.0 mg/kg/injection, schedule: Q01DX009 (ip), vehicle: Klucel (hydroxypropylcellulose) (HPC)) 119 % of control and 120 % of control.
As for `CCCCCCCC1C(=O)OC2CC3C(C)=CC(=O)C(O)C3(C)C3C4(O)OCC23C1C(C)C4O` (centres undefined), the T/C is 107 % of control (dose: 1.25 mg/kg/injection, schedule: Q01DX005 (ip), vehicle: Klucel (hydroxypropylcellulose) (HPC)); 108 % of control (dose: 2.5 mg/kg/injection, schedule: Q01DX005 (ip), vehicle: Klucel (hydroxypropylcellulose) (HPC)); 107 % of control and 116 % of control (dose: 5.0 mg/kg/injection, schedule: Q01DX005 (ip), vehicle: Klucel (hydroxypropylcellulose) (HPC)); 117 % of control and 124 % of control (dose: 10.0 mg/kg/injection, schedule: Q01DX005 (ip), vehicle: Klucel (hydroxypropylcellulose) (HPC)).
As for `Nc1nc2nc[nH]c(=O)c2[nH]1`, the T/C (dose: 6.25 mg/kg/injection, schedule: Q01DX005 (ip), vehicle: saline with Tween-80) is 99 % of control; the T/C (dose: 12.5 mg/kg/injection, schedule: Q01DX005 (ip), vehicle: saline with Tween-80) was 99 % of control; the T/C (dose: 25.0 mg/kg/injection, schedule: Q01DX005 (ip), vehicle: saline with Tween-80) is 102 % of control and 106 % of control; the T/C under setting [1] was 102 % of control.
With `O=C(O)CCS/N=N/c1nc2nc[nH]c(=O)c2[nH]1`, the T/C is 107 % of control under setting [2], 103 % of control under setting [3] and 104 % of control under setting [4].
Take `CCNc1ccc(C(=O)c2cccc(N)c2)cc1N`: the T/C under setting [5] is 96 % of control, the T/C under setting [6] is 96 % of control and the T/C under setting [7] was 89 % of control.
Consider `CCCN(C)N=Nc1ccccc1C(=O)O`, for which the T/C was 111 % of control (dose: 3.12 mg/kg/injection, schedule: Q01DX009 (ip), vehicle: Klucel (hydroxypropylcellulose) (HPC)); 91 % of control (dose: 6.25 mg/kg/injection, schedule: Q01DX009 (ip), vehicle: Klucel (hydroxypropylcellulose) (HPC)); 110 % of control (dose: 12.5 mg/kg/injection, schedule: Q01DX009 (ip), vehicle: Klucel (hydroxypropylcellulose) (HPC)); 110 % of control (dose: 25.0 mg/kg/injection, schedule: Q01DX009 (ip), vehicle: Klucel (hydroxypropylcellulose) (HPC)); 105 % of control (dose: 50.0 mg/kg/injection, schedule: Q01DX009 (ip), vehicle: Klucel (hydroxypropylcellulose) (HPC)).
Turning to `O=C1CS(=O)(=O)C(c2ccc(F)cc2)N1N1C(=O)CS(=O)(=O)C1c1ccc(F)cc1` (centres undefined), the T/C reads like this: under setting [5], 91 % of control; under setting [6], 93 % of control; under setting [7], 93 % of control.
Take `Cc1[nH]nc2c1NC(=O)OC2C` (centres undefined): the T/C was 108 % of control under setting [1], 99 % of control under setting [8] and 101 % of control under setting [9].
Turning to `O=c1cccccc1Cl`, the T/C under setting [10] is 104 % of control and the T/C under setting [11] was 101 % of control.
For `CSCNC(=S)Nc1ccc(Cl)c(Cl)c1` the same measures were 100 % of control and 107 % of control.
As for `CC1CC(c2ccccc2)C(c2ccccc2Cl)C(=O)O1` (centres undefined), the T/C reads like this: (dose: 100.0 mg/kg/injection, schedule: Q04DX002 (ip), vehicle: Klucel (hydroxypropylcellulose) (HPC)) 101 % of control; (dose: 200.0 mg/kg/injection, schedule: Q04DX002 (ip), vehicle: Klucel (hydroxypropylcellulose) (HPC)) 96 % of control; (dose: 400.0 mg/kg/injection, schedule: Q04DX002 (ip), vehicle: Klucel (hydroxypropylcellulose) (HPC)) 96 % of control.
Take `CCCCc1c(O)c(N=NC(=N)N)c2ccccc2c1O`: the T/C was 100 % of control under setting [1], 101 % of control under setting [8] and 99 % of control under setting [9].
As to `O=C1C2CC3OC3CC2C(=O)N1CN1C(=O)C2CC3OC3CC2C1=O` (centres undefined), the T/C is, setting by setting: under setting [2], 106 % of control; under setting [3], 91 % of control; under setting [4], 89 % of control.
On the same counts, the results for `CC(=O)C1(C)Nc2cccc3cccc(c23)N1` are 100 % of control, 96 % of control and 101 % of control.
With `COC(=O)N1C=CC2ON=C(S(=O)(=O)c3ccccc3)C2C1` (centres undefined), the T/C was 108 % of control under setting [5], 95 % of control under setting [6] and 98 % of control under setting [7].
For the compound `O=C1C=CC(=O)C=C1`, the T/C was 101 % of control (dose: 3.12 mg/kg/injection, schedule: Q04DX003 (ip), vehicle: saline with Tween-80) and 99 % of control (dose: 6.25 mg/kg/injection, schedule: Q04DX003 (ip), vehicle: saline with Tween-80).
On to `Fc1ccc2c(c1)C(Br)c1ccccc1-2` (centres undefined), for which the T/C reads like this: (dose: 6.25 mg/kg/injection, schedule: Q01DX009 (ip), vehicle: saline with Tween-80) 104 % of control; (dose: 12.5 mg/kg/injection, schedule: Q01DX009 (ip), vehicle: saline with Tween-80) 100 % of control; (dose: 25.0 mg/kg/injection, schedule: Q01DX009 (ip), vehicle: saline with Tween-80) 109 % of control.
On to `COc1ccc(C2CC(=O)c3c(O)cc(OC4OC(COC5OC(C)C(O)C(O)C5O)C(O)C(O)C4O)cc3O2)cc1O` (centres undefined), for which the T/C under setting [1] is 94 % of control, the T/C under setting [8] is 100 % of control and the T/C under setting [9] is 92 % of control.
Consider `COc1ccc2c(c1)C(c1cccc3ccccc13)OC2=O` (centres undefined), for which the T/C is 103 % of control (dose: 6.25 mg/kg/injection, schedule: Q01DX005 (ip), vehicle: Klucel (hydroxypropylcellulose) (HPC)); 92 % of control (dose: 12.5 mg/kg/injection, schedule: Q01DX005 (ip), vehicle: Klucel (hydroxypropylcellulose) (HPC)); 87 % of control (dose: 25.0 mg/kg/injection, schedule: Q01DX005 (ip), vehicle: Klucel (hydroxypropylcellulose) (HPC)); 90 % of control under setting [2].
In the case of `CN(C(=S=O)c1ccc(Cl)cc1)c1ccccc1`, the T/C by setting is: (dose: 25.0 mg/kg/injection, schedule: Q01DX009 (ip), vehicle: suspension in saline) 101 % of control; (dose: 50.0 mg/kg/injection, schedule: Q01DX009 (ip), vehicle: suspension in saline) 95 % of control; (dose: 100.0 mg/kg/injection, schedule: Q01DX009 (ip), vehicle: saline) 90 % of control; (dose: 100.0 mg/kg/injection, schedule: Q01DX009 (ip), vehicle: suspension in saline) 105 % of control and 97 % of control; (dose: 200.0 mg/kg/injection, schedule: Q01DX009 (ip), vehicle: saline) 94 % of control.
`COC(=O)CCC(=O)C(C#N)c1ccc(Cl)c(Cl)c1` (centres undefined): the T/C under setting [5] was 101 % of control and the T/C under setting [6] was 101 % of control.
On to `O=[N+]([O-])c1cccc2nc(-c3ccccn3)n(CCc3ccncc3)c12`, for which the T/C was 104 % of control (dose: 50.0 mg/kg/injection, schedule: Q01DX001 (ip), vehicle: Klucel (hydroxypropylcellulose) (HPC)); 104 % of control (dose: 100.0 mg/kg/injection, schedule: Q01DX001 (ip), vehicle: Klucel (hydroxypropylcellulose) (HPC)); 101 % of control (dose: 200.0 mg/kg/injection, schedule: Q01DX001 (ip), vehicle: Klucel (hydroxypropylcellulose) (HPC)).
For the compound `CC1(C)N=C(N)N=C(N)N1c1ccc(F)c(C(F)(F)F)c1`, the T/C is 118 % of control (dose: 1.0 mg/kg/injection, schedule: Q01DX009 (ip), vehicle: saline); 119 % of control (dose: 4.0 mg/kg/injection, schedule: Q08DX002 (ip), vehicle: saline); 170 % of control (dose: 8.0 mg/kg/injection, schedule: Q01DX009 (ip), vehicle: saline); 120 % of control (dose: 8.0 mg/kg/injection, schedule: Q08DX002 (ip), vehicle: saline); 181 % of control (dose: 16.0 mg/kg/injection, schedule: Q01DX009 (ip), vehicle: saline); 121 % of control (dose: 32.0 mg/kg/injection, schedule: Q01DX001 (ip), vehicle: saline). For the same compound, the T/C is 190 % of control (dose: 32.0 mg/kg/injection, schedule: Q01DX009 (ip), vehicle: saline); 121 % of control (dose: 64.0 mg/kg/injection, schedule: Q01DX001 (ip), vehicle: saline); 90 % of control (dose: 64.0 mg/kg/injection, schedule: Q01DX009 (ip), vehicle: saline); 122 % of control (dose: 128.0 mg/kg/injection, schedule: Q01DX001 (ip), vehicle: saline).

The record behind these values is PubChem BioAssay AID330 (DTP/NCI, 2004).
